For experiment [1], the system named is LPS induced IL-6 secretion from whole blood. Description: Measurement of LPS induced IL-6 secretion from whole blood. In kind it is cell-based. Particulars: 24 h, LPS 200 ng/ml, IL-6 by immunoassay. Here is the method:
Measurement of LPS Induced IL-6 Secretion from Whole Blood
Activation of monocytic cells by agonists of toll-like receptors such as bacterial lipopolysaccharide (LPS) results in production of key inflammatory mediators including IL-6. Such pathways are widely considered to be central to the pathophysiology of a range of auto-immune and inflammatory disorders.
Compounds to be tested are diluted to give a range of appropriate concentrations of which 1 μl of the diluted stocks is added to a 96 well plate. Following addition of whole blood (130 μl) the plates are incubated at 37 degrees (5% CO2) for 30 min before the addition of 10 μl of 2.8 ug/ml LPS, diluted in complete RPMI 1640 (final concentration=200 ng/ml), to give a total volume of 140 ul per well. After further incubation for 24 hours at 37 degrees, 140 μl of PBS are added to each well. The plates are sealed, shaken for 10 minutes and then centrifuged (2500 rpm×10 min). 100 μl of the supernatant are removed and IL-6 levels assayed by immunoassay (typically by MesoScale Discovery technology) either immediately or following storage at −20 degrees. Concentration response curves for each compound was generated from the data and an IC50 value was calculated

The next experiment deals with T1, Bromodomain BRD4 (Homo sapiens, UniProt O60885).
T1 construct: BRD4 (1-477); made in house; host or cells: E. coli (pET15b vector)
Description: Time Resolved Fluorescence Resonance Energy Transfer (TR-FRET) assay, BRD4. The class given is binding. The following applies: BRD4 (1-477), acetylated histone peptide. Here is the method:
(§1) Time Resolved Fluorescence Resonance […] Transfer (TR-FRET) Assay
(§2) The binding of the compounds of formula (I) to Bromodomains BRD2, BRD3 and BRD4 was assessed using a time resolved fluorescent resonance energy transfer binding assay, that measures the binding of an acetylated histone peptide to the bromodomain protein.
(§3) The bromodomain protein, histone peptide and a variable concentration of test compound are incubated together to reach thermodynamic equilibrium.
(§4) The protected peptide was assembled on a solid-phase synthesiser using preloaded Wang resin and utilising standard Fmoc synthesis protocols. The C-terminal lysine was protected by a hyper acid-labile group allowing for its selective removal at the end of the assembly and attachment of the biotin. The crude peptide was obtained after cleavage from the resin with a mixture of trifluoroacetic acid (TFA), triisopropylsilane and water (95:2.5:2.5) for 3 h at room temperature and was then purified using a C18 reverse-phase column utilising a 0.1% TFA-buffered water/acetonitrile gradient. The resulting fractions were analysed and fractions which were >95% pure by analytical HPLC and giving the correct mw (by MALDiTOF mass spectroscopy) were pooled and freeze dried. The final material was analysed by HPLC to confirm purity.
(§5) Recombinant Human Bromodomains (BRD2 (1-473), BRD3 (1-435) and BRD4 (1-477)) were expressed in E. coli cells (in pET15b vector) with a six-His tag at the N-terminal. The His-tagged Bromodomain was extracted from E. coli cells using sonication and purified using a nickel sepharose 6FF column, the proteins were washed and then eluted with 50 mM Tris-Hcl pH8.0. 300 mM NaCl, 1 mM β-mercaptoethanol and 20 mM Imidazole. Further purification was performed by affinity chromatography on a HisTRAP HP column, eluting with a linear 0-500 mM […] gradient, over 20 column volumes. Final purification was completed by Superdex 200 prep grade size exclusion column. Purified protein was stored at −80 C in 20 mM HEPES pH 7.5 and 100 mM NaCl. Protein identity was confirmed by peptide mass fingerprinting and predicted molecular weight confirmed by mass spectrometry.
(§6) Protocol for Bromodomain BRD2, 3 and 4 Assays:
(§7) All assay components were dissolved in buffer composition of 50 mM HEPES pH7.4, 50 mM NaCl and 0.5 mM CHAPS. The final concentration of bromodomain proteins were 100 nM and the histone peptide was 300 nM, these components are premixed and allowed to equilibrate for 1 hour in the dark. 8 μl of this reaction mixture was added to all wells containing 50 nl of various concentrations of test compound or DMSO vehicle (0.5% final) in Greiner 384 well black low volume microtitre plates and incubated in dark for 60 mins at room temperature. […] detection mixture containing anti-6his XL665 labeled antibody and streptavidin labeled with europium cryptate was added to all wells and a further dark incubation of at least 30 mins was performed. Plates were then read on the Envision platereader, (λex=317 nm, donor λEM=615 nm; acceptor λEM=665 nm; Dichroic LANCE dual). Time resolved fluorescent intensity measurements were made at both emission wavelengths and the ratio of acceptor/donor was calculated and used for data analysis. All data was normalized to the mean of 16 high and 16 low control wells on each plate. A four parameter curve fit of the following form was then applied: y=a+((b−a)/(1+(10^x/10^c)^d)
(§8) Where ‘a’ is the minimum, ‘b’ is the Hill slope, ‘c’ is the pIC50 and ‘d’ is the maximum.

In the next experiment the target is T2, Bromodomain BRD2 (Homo sapiens, UniProt P25440).
T2 construct: BRD2 (1-473); made in house; host or cells: E. coli (pET15b vector)
Description: Time Resolved Fluorescence Resonance Energy Transfer (TR-FRET) assay, BRD2. The class given is binding. The following applies: BRD2 (1-473), acetylated histone peptide. The procedure: as §1, §2, §3, §4, §5, §6, §7, §8

A further experiment addresses T3, Bromodomain BRD3 (Homo sapiens, UniProt Q15059).
T3 construct: BRD3 (1-435); made in house; host or cells: E. coli (pET15b vector)
Description: Time Resolved Fluorescence Resonance Energy Transfer (TR-FRET) assay, BRD3. The class given is binding. Particulars: BRD3 (1-435), acetylated histone peptide. The procedure: as §1, §2, §3, §4, §5, §6, §7, §8
In general terms: TR-FRET usually uses a lanthanide donor and a delayed reading to cut background.

Experiment [2] deals with T4, Bromodomain BRD2, BRD3 and BRD4.
T4 construct: fused on or other part: six-His tag at the N-terminus
Description: Fluorescence Anisotropy Binding Assay. Particulars: tested in one or more of the BRD2, BRD3, BRD4 fluorescence anisotropy assays. The arrangement: species or system Human. The text has this: Fluorescence Anisotropy Binding Assay
The binding of the compounds of formula (I) to Bromodomain BRD2, BRD3 and BRD4 may be assessed using a Fluorescence Anisotropy Binding Assay.
All data was normalized to the mean of 16 high and 16 low control wells on each plate. A four parameter curve fit of the following form was then applied: y=a+((b−a)/(1+(10^x/10^c)^d)
Where ‘a’ is the minimum, ‘b’ is the Hill slope, ‘c’ is the pIC50 and ‘d’ or is the maximum.
Recombinant Human Bromodomains (Bromodomain BRD2 (1-473), Bromodomain BRD3 (1-435) and Bromodomain BRD4 (1-477)) were expressed in E. coli cells (in pET15b vector) with a six-His tag at the N-terminal. The His-tagged Bromodomain was extracted from E. coli cells using 0.1 mg/ml lysozyme and sonication. […]
All components were dissolved in buffer composition of 50 mM HEPES pH7.4, 150 mm NaCl and 0.5 mM CHAPS with final concentrations of Bromodomain 2, 75 nM, fluorescent ligand 5 nM. […] Fluorescence anisotropy was read in Envision (λex=485 nm, λEM=530 nm; Dichroic −505 nM). […]
All components were dissolved in buffer of composition 50 mM HEPES pH7.4, 150 mm NaCl and 0.5 mM CHAPS with final concentrations of Bromodomains 3 75 nM, fluorescent ligand 5 nM. […] Fluorescence anisotropy was read in Envision (λex=485 nm, λEM=530 nm; Dichroic −505 nM). […]

Bounds are passed on as bounds.

The IC50 is the concentration at which inhibition is half-maximal. A higher IC50 goes with weaker potency. The pIC50 is the IC50 on a negative log10 scale, so that one unit is a factor of ten. Low readings indicate a high IC50, high ones a low IC50.

T3 sequence (Q15059 1-435): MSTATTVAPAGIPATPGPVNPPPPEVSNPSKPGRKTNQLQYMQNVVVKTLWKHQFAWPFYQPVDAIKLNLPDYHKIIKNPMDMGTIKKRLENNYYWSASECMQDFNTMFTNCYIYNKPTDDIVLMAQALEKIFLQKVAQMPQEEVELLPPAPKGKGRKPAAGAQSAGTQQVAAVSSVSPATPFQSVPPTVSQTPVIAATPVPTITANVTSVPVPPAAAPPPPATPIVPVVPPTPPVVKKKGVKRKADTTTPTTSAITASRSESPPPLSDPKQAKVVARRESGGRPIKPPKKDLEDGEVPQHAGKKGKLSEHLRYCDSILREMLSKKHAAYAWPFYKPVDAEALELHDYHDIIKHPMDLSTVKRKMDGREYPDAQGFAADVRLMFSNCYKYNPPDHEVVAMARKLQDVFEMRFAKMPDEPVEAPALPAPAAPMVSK
T2 sequence (P25440 1-473): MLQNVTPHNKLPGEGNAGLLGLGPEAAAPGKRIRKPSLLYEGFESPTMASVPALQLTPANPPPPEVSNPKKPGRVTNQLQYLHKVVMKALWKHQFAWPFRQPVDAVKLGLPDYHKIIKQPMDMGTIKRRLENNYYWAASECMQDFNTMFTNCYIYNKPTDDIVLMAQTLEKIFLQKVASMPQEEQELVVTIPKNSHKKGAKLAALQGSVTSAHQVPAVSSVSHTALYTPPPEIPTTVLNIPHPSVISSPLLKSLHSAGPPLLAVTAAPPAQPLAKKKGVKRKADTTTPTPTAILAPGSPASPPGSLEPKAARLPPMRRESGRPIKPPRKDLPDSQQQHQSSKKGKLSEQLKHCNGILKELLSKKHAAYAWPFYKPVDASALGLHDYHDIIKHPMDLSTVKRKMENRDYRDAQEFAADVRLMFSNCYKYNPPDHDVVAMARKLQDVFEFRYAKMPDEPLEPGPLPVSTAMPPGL

As for `COCCn1ncc(-c2ccc3c(c2)[C@H](Nc2ccc(C#N)cn2)C[C@H](C)N3C(C)=O)n1` [Example 4, 6-(((2S,4R)-1-acetyl-6-(2-(2-methoxyethyl)-2H-1,2,3-triazol-4-yl)-2-methyl-1,2,3,4-tetrahydroquinolin-4-yl)amino)nicotinonitrile], the IC50 in experiment [1] was 0.126 to 1 µM; against Bromodomain BRD4, 0.0631 to 0.316 µM; at Bromodomain BRD2, 0.0631 to 0.316 µM; against Bromodomain BRD3, 0.0631 to 0.316 µM.
Take `COCCn1cc(-c2ccc3c(c2)[C@H](Nc2cnc(C)cn2)C[C@H](C)N3C(C)=O)cn1` [Example 8, 1-((2S,4R)-6-(1-(2-methoxyethyl)-1H-pyrazol-4-yl)-2-methyl-4-((5-methylpyrazin-2-yl)amino)-3,4-dihydroquinolin-1(2H)-yl)ethanone]: the IC50 in experiment [1] was 0.126 to 1 µM; at Bromodomain BRD4, 0.0631 to 0.316 µM; against Bromodomain BRD2, 0.0631 to 0.316 µM; on Bromodomain BRD3, 0.0631 to 0.316 µM.
Take `COCCn1cc(-c2ccc3c(c2)[C@H](Nc2ccc(Cl)cn2)C[C@H](C)N3C(C)=O)cn1` [Example 5, 1-((2S,4R)-4-((5-chloropyridin-2-yl)amino)-6-(1-(2-methoxyethyl)-1H-pyrazol-4-yl)-2-methyl-3,4-dihydroquinolin-1(2H)-yl)ethanone]: the IC50 in experiment [1] is 0.126 to 1 µM; on Bromodomain BRD4, 0.0631 to 0.316 µM; against Bromodomain BRD2, 0.0631 to 0.316 µM; against Bromodomain BRD3 it was 0.0631 to 0.316 µM.
Consider `COCCn1cc(-c2ccc3c(c2)[C@H](NC(=O)OC(C)C)C[C@H](C)N3C(C)=O)cn1` [Example 1, 1-methylethyl ((2S,4R)-1-acetyl-2-methyl-6-{1-[2-(methyloxy)ethyl]-1H-pyrazol-4-yl}-1,2,3,4-tetrahydro-4-quinolinyl)carbamate], for which the half-maximal inhibitory concentration (IC50) in experiment [1] is 0.126 to 1 µM. The molecule also had a pIC50 in experiment [2] not below 6.5.
`COCCn1cc(-c2ccc3c(c2)[C@H](Nc2cccc(Cl)c2)C[C@H](C)N3C(C)=O)cn1` [Example 7, 1-((2S,4R)-4-((3-chlorophenyl)amino)-6-(1-(2-methoxyethyl)-1H-pyrazol-4-yl)-2-methyl-3,4-dihydroquinolin-1(2H)-yl)ethanone]: the IC50 is 0.126 to 1 µM in experiment [1], 0.0631 to 0.316 µM against Bromodomain BRD4, 0.0631 to 0.316 µM against Bromodomain BRD2 and 0.0631 to 0.316 µM at Bromodomain BRD3.
Consider `COCCn1cc(-c2ccc3c(c2)[C@H](Nc2ccc(C)cn2)C[C@H](C)N3C(C)=O)cn1` [Example 6, 1-((2S,4R)-6-(1-(2-methoxyethyl)-1H-pyrazol-4-yl)-2-methyl-4-((5-methylpyridin-2-yl)amino)-3,4-dihydroquinolin-1(2H)-yl)ethanone], for which the IC50 is 0.126 to 1 µM in experiment [1], 0.0631 to 0.316 µM at Bromodomain BRD4, 0.0631 to 0.316 µM at Bromodomain BRD2 and 0.0631 to 0.316 µM against Bromodomain BRD3.
On to `COCCn1cc(-c2ccc3c(c2)[C@H](Nc2ccc(C#N)cn2)C[C@H](C)N3C(C)=O)nn1` [Example 3, 6-(((2S,4R)-1-acetyl-6-(1-(2-methoxyethyl)-1H-1,2,3-triazol-4-yl)-2-methyl-1,2,3,4-tetrahydroquinolin-4-yl)amino)nicotinonitrile], for which the half-inhibitory concentration (IC50) was 0.126 to 1 µM in experiment [1], 0.0631 to 0.316 µM against Bromodomain BRD4, 0.0631 to 0.316 µM on Bromodomain BRD2 and 0.0631 to 0.316 µM on Bromodomain BRD3.
